target: RIPK2 (Homo sapiens (Human), UniProt O43353); test: RIPK2 inhibition, ADP-Glo Kinase Assay; format: biochemical; conditions: 8His-RIPK2 FL enzyme 8 nM, ATP 5 μM, 15 minutes pre-incubation, 60 minutes at 37° C., luminescence
Procedure: RIPK2 inhibition for compounds in Table 1 are shown in Table 3 and measured using the following method:
Materials: White, 384-well optiplates (cat.no. 6007290) were purchased from PerkinElmer. The V9103X ADP-Glo Kinase Assay Custom (including ultra-pure ATP) was purchased from Promega. 8His-RIPK2 FL was prepared in-house. All other materials were of highest grade commercially available.
Method: In a 384-well plate, test compound diluted in assay buffer (1% DMSO final) is mixed with 8His-RIPK2 FL enzyme (final concentration of 8 nM). After 15 minutes of pre-incubation at RT, ATP dissolved in assay buffer is added (final concentration 5 μM). The mixture is incubated for 60 minutes at 37° C. in a humidified incubator. Then, ADP Glo Reagent is added, followed by a 40 minute incubation at rt. Finally, Kinase Detection Reagent is added and the entire mixture is incubated for 40 min at RT. The luminescence signal is measured with an Envision reader to determine the amount of ADP produced. Assay buffer: 25 mM HEPES (4-(2-hydroxyethyl)-1-piperazinethanesulfonic acid), 0.1% BSA (bovine serum albumin), 10 mM MgCl2, 5 mM MnCl2, 50 mM KCl, 0.01% CHAPS (3-[(3-cholamidopropyl)dimethylammonio]-1-propanesulfonate), 10 μM Na3VO4, 1 mM DTT (dithiothreitol), pH 7.5 All plates contain wells with vehicle controls instead of compound (1% DMSO) as reference for the high signal (100% CTL (100% of control), high signal), and wells without enzyme as reference for low signal (0% CTL, low signal). The luminescent signal generated is proportional to the ADP produced and is correlated with enzyme activity. The analysis of the data is performed by the calculation of the percentage of ADP production in the presence of the test compound and RIPK2 as compared to the ADP production in the presence of RIPK2 plus 50 μM Gefitinib. (RLU (relative luminescence units) (sample)−RLU(low control))*100/(RLU(high value)−RLU(low control)) [RLU=relative luminescence units].

Sequence of RIPK2 (O43353 whole entry): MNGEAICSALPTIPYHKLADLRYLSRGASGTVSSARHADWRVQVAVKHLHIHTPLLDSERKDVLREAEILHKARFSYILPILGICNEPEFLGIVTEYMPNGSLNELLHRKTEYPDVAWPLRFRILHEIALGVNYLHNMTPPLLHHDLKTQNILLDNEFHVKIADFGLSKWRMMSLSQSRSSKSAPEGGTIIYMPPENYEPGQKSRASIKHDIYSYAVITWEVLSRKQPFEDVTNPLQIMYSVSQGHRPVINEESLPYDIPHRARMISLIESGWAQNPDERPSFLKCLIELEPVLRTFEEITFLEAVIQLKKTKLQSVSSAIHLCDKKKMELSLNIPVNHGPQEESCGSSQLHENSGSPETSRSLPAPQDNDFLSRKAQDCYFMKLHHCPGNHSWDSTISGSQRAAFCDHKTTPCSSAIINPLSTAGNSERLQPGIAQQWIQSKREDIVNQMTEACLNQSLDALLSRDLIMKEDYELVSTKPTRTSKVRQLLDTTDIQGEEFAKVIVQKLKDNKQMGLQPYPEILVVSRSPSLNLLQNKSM

Row | Structure (SMILES) | IC50
1 | Cc1cc(F)c(C(=O)NC2CC2)cc1-c1cnn(-c2cncc(N[C@H]3CCN(C)CC3(F)F)c2)c1 (single isomer, unassigned) [Example 175] | 1.7 nM
2 | Cc1cc(F)c(C(=O)NC2CC2)cc1-c1cnn(-c2cncc(N[C@@H]3CCN(C)CC3(F)F)c2)c1 (single isomer, unassigned) [Example 176] | 1.5 nM
3 | COc1cncc(-n2cc(-c3cc(C(=O)NC4CC4)c(F)cc3C)cn2)c1 [Example 25, N-cyclopropyl-2-fluoro-5-[1-(5-methoxypyridin-3-yl)-1H-pyrazol-4-yl]-4-methylbenzamide] | 3.7 nM
4 | COc1cncc(-n2cc(-c3cc(C(=O)NC4CC4)c(F)cc3Cl)cn2)c1 [Example 26, 4-chloro-N-cyclopropyl-2-fluoro-5-[1-(5-methoxypyridin-3-yl)-1H-pyrazol-4-yl]benzamide] | 8.9 nM
5 | COc1cncc(-n2cc(-c3cc(C(=O)NC4CC4)ccc3Cl)cn2)c1 [Example 27, 4-chloro-N-cyclopropyl-3-[1-(5-methoxypyridin-3-yl)-1H-pyrazol-4-yl]benzamide] | 22 nM
6 | O=C(NC1CC1)c1ccc(Cl)c(-c2cnn(-c3cccnc3)c2)c1 [Example 31, 4-chloro-N-cyclopropyl-3-[1-(pyridin-3-yl)-1H-pyrazol-4-yl]benzamide] | 94 nM
7 | O=C(NC1CC1)c1cc(-c2cnn(-c3cccnc3)c2)c(Cl)cc1F [Example 32, 4-chloro-N-cyclopropyl-2-fluoro-5-[1-(pyridin-3-yl)-1H-pyrazol-4-yl] benzamide] | 14 nM
8 | COc1cncc(-n2cnc(-c3cc(C(=O)NC4CC4)c(F)cc3Cl)c2)c1 [Example 33, 4-chloro-N-cyclopropyl-2-fluoro-5-[1-(5-methoxypyridin-3-yl)-1H-imidazol-4-yl]benzamide] | 7.4 nM
9 | Cc1ccc(C(=O)NC2CC2)cc1-c1cnn(-c2cccnc2)c1 [Example 34, N-cyclopropyl-4-methyl-3-[1-(pyridin-3-yl)-1H-pyrazol-4-yl] benzamide] | 38 nM
10 | Cc1ccc(C(=O)NC2CC2)cc1-c1cn(-c2cccnc2)cn1 [Example 35, N-cyclopropyl-4-methyl-3-[1-(pyridin-3-yl)-1H-imidazol-4-yl] benzamide] | 39 nM
11 | Cc1ccc(C(=O)NC2CC2)cc1-c1cnn(-c2cncc(C(F)(F)F)c2)c1 [Example 47, N-cyclopropyl-4-methyl-3-{1-[5-(trifluoromethyl)pyridin-3-yl]-1H-pyrazol-4-yl}benzamide] | 57 nM
12 | COc1cncc(-n2cnc(-c3cc(C(=O)NC4CC4)ccc3C)c2)c1 [Example 53, N-cyclopropyl-3-[1-(5-methoxypyridin-3-yl)-1H-imidazol-4-yl]-4-methyl-benzamide] | 7.6 nM
13 | COc1cncc(-n2cnc(-c3cc(C(=O)NC4CC4)ccc3Cl)c2)c1 [Example 54, 4-chloro-N-cyclopropyl-3-[1-(5-methoxypyridin-3-yl)-1H-imidazol-4-yl]benzamide] | 41 nM
14 | Cc1ccc(C(=O)NC2CC2)cc1-c1cnn(-c2cncc(NCCOC(C)(C)C)c2)c1 [Example 55, 3-[1-(5-{[2-(tert-butoxy)ethyl]amino}pyridin-3-yl)-1H-pyrazol-4-yl]-N-cyclopropyl-4-methylbenzamide] | 9.7 nM

Continued, values first:

Row | IC50 | Structure (SMILES)
15 | 15 nM | COc1cncc(-n2cc(-c3cc(C(=O)NC4CC4)ccc3C)cn2)c1 [Example 28, N-cyclopropyl-3-[1-(5-methoxy-pyridin-3-yl)-1H-pyrazol-4-yl]-4-methylbenzamide]
16 | 8.8 nM | CCOc1cncc(-n2cc(-c3cc(C(=O)NC4CC4)ccc3C)cn2)c1 [Example 36, N-cyclopropyl-3-[1-(5-ethoxypyridin-3-yl)-1H-pyrazol-4-yl]-4-methyl-benzamide]
17 | 180 nM | CNCc1cncc(-n2cc(-c3cc(C(=O)NC4CC4)ccc3C)cn2)c1 [Example 39, N-cyclopropyl-4-methyl-3-(1-{5-[(methylamino)methyl]pyridin-3-yl}-1H-pyrazol-4-yl)benzamide]
18 | 24 nM | Cc1ccc(C(=O)NC2CC2)cc1-c1cnn(-c2cncc(CO)c2)c1 [Example 43, N-cyclopropyl-3-{1-[5-(hydroxymethyl)pyridin-3-yl]-1H-pyrazol-4-yl}-4-methylbenzamide]
19 | 6.4 nM | Cc1ccc(C(=O)NC2CC2)cc1-c1cnn(-c2cncc(N(C)C)c2)c1 [Example 44, N-cyclopropyl-3-{1-[5-(dimethylamino)pyridin-3-yl]-1H-pyrazol-4-yl}-4-methylbenzamide]
20 | 3.6 nM | Cc1ccc(C(=O)NC2CC2)cc1-c1cnn(-c2cncc(C3CC3)c2)c1 [Example 45, N-cyclopropyl-3-[1-(5-cyclopropyl-pyridin-3-yl)-1H-pyrazol-4-yl]-4-methylbenzamide]
21 | 190 nM | Cc1ccc(C(=O)NC2CC2)cc1-c1cnn(-c2cncc(S(C)(=O)=O)c2)c1 [Example 46, N-cyclopropyl-3-[1-(5-methanesulfonylpyridin-3-yl)-1H-pyrazol-4-yl]-4-methylbenzamide]
22 | 33 nM | Cc1ccc(C(=O)NC2CC2)cc1-c1cnn(-c2cncc(C(=O)O)c2)c1 [Example 48, 5-{4-[5-(cyclopropylcarbamoyl)-2-methylphenyl]-1H-pyrazol-1-yl} pyridine-3-carboxylic acid]
23 | 390 nM | Cc1ccc(C(=O)NC2CC2)cc1-c1cnn(-c2cncc(C(=O)N(C)C)c2)c1 [Example 49, 5-{4-[5-(cyclopropylcarbamoyl)-2-methylphenyl]-1H-pyrazol-1-yl}-N,N-dimethylpyridine-3-carboxamide]
24 | 570 nM | CC(=O)NC(C)(C)c1cncc(-n2cc(-c3cc(C(=O)NC4CC4)ccc3C)cn2)c1 [Example 50, N-cyclopropyl-3-{1-[5-(2-acetamidopropan-2-yl)pyridin-3-yl]-1H-pyrazol-4-yl}-4-methylbenzamide]
25 | 240 nM | Cc1ccc(C(=O)NC2CC2)cc1-c1cnn(-c2cncc(CC(=O)O)c2)c1 [Example 51, 2-(5-{4-[5-(cyclopropylcarbamoyl)-2-methylphenyl]-1H-pyrazol-1-yl}pyridin-3-yl)acetic acid]
26 | 56 nM | Cc1ccc(C(=O)NC2CC2)cc1-c1cnn(-c2cncc(CC#N)c2)c1 [Example 52, 3-{1-[5-(cyanomethyl)pyridin-3-yl]-1H-pyrazol-4-yl}-N-cyclopropyl-4-methylbenzamide]
27 | 10 nM | CCO[C@H]1COC[C@@H]1Nc1cncc(-n2cc(-c3cc(C(=O)NC4CC4)ccc3C)cn2)c1 [Example 56, N-cyclopropyl-3-[1-(5-{[(3S,4R)-4-ethoxyoxolan-3-yl]amino}pyridin-3-yl)-1H-pyrazol-4-yl]-4-methyl-benzamide]
28 | 4.5 nM | Cc1ccc(C(=O)NC2CC2)cc1-c1cnn(-c2cncc(NCC3COCCO3)c2)c1 (stereo not shown) [Example 57, N-cyclopropyl-3-(1-{5-[(1,4-dioxan-2-ylmethyl)amino]pyridin-3-yl}-1H-pyrazol-4-yl)-4-methylbenzamide]
29 | 3.8 nM | Cc1ccc(C(=O)NC2CC2)cc1-c1cnn(-c2cncc(NCCN3CCOC3=O)c2)c1 [Example 58, N-cyclopropyl-4-methyl-3-[1-(5-{[2-(2-oxo-1,3-oxazolidin-3-yl)ethyl]amino}pyridin-3-yl)-1H-pyrazol-4-yl]benzamide]
30 | 9.1 nM | Cc1ccc(C(=O)NC2CC2)cc1-c1cnn(-c2cncc(NCC3CCCO3)c2)c1 (stereo not shown) [Example 59, N-cyclopropyl-4-methyl-3-(1-{5-[(oxolan-2-ylmethyl)amino]pyridin-3-yl}-1H-pyrazol-4-yl)benzamide]
31 | 8.4 nM | COCCNc1cncc(-n2cc(-c3cc(C(=O)NC4CC4)ccc3C)cn2)c1 [Example 60, N-cyclopropyl-3-(1-{5-[(2-methoxyethyl)amino]pyridin-3-yl}-1H-pyrazol-4-yl)-4-methylbenzamide]
32 | 1.9 nM | CC(=O)N1CCC(Nc2cncc(-n3cc(-c4cc(C(=O)NC5CC5)ccc4C)cn3)c2)CC1 [Example 63, 3-(1-{5-[(1-acetylpiperidin-4-yl)amino]pyridin-3-yl}-1H-pyrazol-4-yl)-N-cyclopropyl-4-methyl-benzamide]
33 | 2.3 nM | COC1CCC(Nc2cncc(-n3cc(-c4cc(C(=O)NC5CC5)ccc4C)cn3)c2)C1 (stereo not shown) [Example 65, N-cyclopropyl-3-(1-{5-[(3-methoxycyclopentyl)amino]pyridin-3-yl}-1H-pyrazol-4-yl)-4-methyl-benzamide]
34 | 3.9 nM | Cc1ccc(C(=O)NC2CC2)cc1-c1cnn(-c2cncc(N[C@@H]3C[C@H]4CC[C@@H]3O4)c2)c1 [Example 66, N-cyclopropyl-4-methyl-3-[1-(5-{[(1S,2R,4R)-7-oxabicyclo[2.2.1]heptan-2-yl]amino}pyridin-3-yl)-1H-pyrazol-4-yl]benzamide]

Reference: US10138222B2, “Substituted benzamides as RIPK2 inhibitors” (Boehringer Ingelheim International GmbH, priority 2016, dated 2018)
